Measurements from US4897417A, “Prodrugs of 3,4-hydroxy benzoyloxypropanolamines” (E. I. Du Pont de Nemours & Co., priority 1988, dated 1990).

Tests used:
[1] = system: isoproterenol-induced increase in heart rate; experiment: Effect on systemic beta-blockade upon topical administration (isoproterenol-induced heart rate in anesthetized dogs); type: in vivo, Mongrel dogs; conditions: for HR, ISO only: 0 min (dose), isoproterenol only, before treatment; for HR, ISO only / HR, baseline: 0.125% group; for HR: 0.125% topical, isoproterenol infusion 0.5 μg/kg/min; for HR, baseline: -30 min, before isoproterenol and before treatment; for systemic beta-blockade of isoproterenol-induced increase in heart rate / effect on the heart rate responses to isoproterenol: in words, 50 μL, 0.125% solution; for effect on the heart rate responses to isoproterenol: topical; for drop in heart rate: within 60 minutes, 0.125% concentration
Procedure: Mongrel dogs were anesthetized and control readings were made at -45 and -30 minutes. Following the -30 minute reading, an infusion of isoproterenol (0.5 μg/kg/min) was begun and maintained during the course of the experiment. Two readings of pretreatment isoproterenol responses were made at […] and at zero minutes. At zero minutes, a 50 μL sample of test compound was administered topically. This dose was repeated at 50, 60 and 90 minutes and the animal was monitored for heart rate for 180 minutes following the first application. Heart rate was obtained directly from the strip chart recording.

[2] = system: isoproterenol-induced increase in heart rate; experiment: as above; type: in vivo, Mongrel dogs; conditions: 120 min (dose) post-treatment, 0.125% topical, isoproterenol infusion 0.5 μg/kg/min
[3] = Ocular bioavailability in rabbits (aqueous humor levels after topical corneal dosing); type: in vivo, New Zealand White Rabbits; conditions: for area under the AH concentration time curve (AUC0-240'): 50 μL of 0.25% Timolol or 0.5% compound 8d; for absorption in the eye: topical
Procedure: The ocular bioavailability of Timolol and compound 8d (dipivaloyl ester prodrug of compound 9d) was evaluated in New Zealand White Rabbits. Fifty μL of a solution of 0.25% Timolol or 0.5% compound 8d (both in the same vehicle) were administered onto the cornea of both eyes of 48 rabbits (24 rabbits/compound). At 5, 15, 30, 60, 120, 180, 240, and 360 minutes after dosing, 3 rabbits (6 eyes) per compound were killed. Aqueous humor (AH), was quickly removed from the eyes, weighed and processed to determine tissue levels of Timolol or compound 8d and compound 9d.

Row | area under the AH concentration time curve (AUC0-240') ([3]; aqueous humor, rabbits) | AUC of compound 8d in AH relative to AUC of Timolol in AH ([3]; aqueous humor, rabbits, after 0.25% Timolol or 0.5% compound 8d) [×] | absorption in the eye ([3]; in words, rabbits) | stability in rabbit ocular tissues ([3]; in words) | Structure (SMILES) | HR, ISO only [1] [bpm] | HR ([1]; 15 min post-treatment) [bpm] | HR ([1]; 30 min post-treatment) [bpm] | HR ([1]; 45 min post-treatment) [bpm] | HR ([1]; 60 min (dose) post-treatment) [bpm] | HR ([1]; 90 min post-treatment) [bpm] | HR ([1]; 150 min post-treatment) [bpm] | HR, baseline [1] [bpm] | systemic beta-blockade of isoproterenol-induced increase in heart rate [1] | effect on the heart rate responses to isoproterenol [1] | drop in heart rate [1] [bpm] | HR [2] [bpm] | delivery of compound 9d to the internal structures of the eye ([3]; in words, rabbits, topical compound 8d)
1 | – | – | – | – | CC(=O)NCC(C)(C)NCC(O)COC(=O)c1cc(OC(=O)C(C)(C)C)c(OC(=O)C(C)(C)C)cc1C (stereo not drawn) [Compound 8a] | 215 | 214 | 213 | 210 | 208 | 207 | 202 | 152 | no systemic beta-blockade | no effect | 2 | 203 | –
2 | – | – | – | – | Cc1cc(OC(=O)C(C)(C)C)c(OC(=O)C(C)(C)C)cc1C(=O)OCC(O)CNC(C)(C)CNC(N)=O (stereo not drawn) [Compound 8c] | 212 | 212 | 210 | 210 | 210 | 210 | 212 | 158 | no systemic beta-blockade | no effect | 7 | 210 | –
3 | 27,377 ng/100 μL/min | 3 | rapidly absorbed in the eye | – | Cc1cc(OC(=O)C(C)(C)C)c(OC(=O)C(C)(C)C)cc1C(=O)OCC(O)CNC(C)(C)CNC(=O)C1CCOC1 (stereo not drawn) [Compound 8d] | – | – | – | – | – | – | – | – | – | – | – | – | effectively delivers compound 9d to the internal structures of the eye
4 | – | – | – | stable in rabbit ocular tissues | Cc1cc(O)c(O)cc1C(=O)OCC(O)CNC(C)(C)CNC(=O)C1CCOC1 (stereo not drawn) [Compound 9d] | – | – | – | – | – | – | – | – | – | – | – | – | –
5 | 9,022 ng/100 μL/min | – | rapidly absorbed in the eye | – | CC(C)(C)NC[C@H](O)COc1nsnc1N1CCOCC1 [Timolol, reference compound] | 213 | 198 | 185 | 174 | 174 | 179 | 192 | 142 | – | significant inhibitory effect | 39 | 183 | –
